Measured values as given in paper PMC7587962, “Evaluation of Cytotoxicity and α-Glucosidase Inhibitory Activity of Amide and Polyamino-Derivatives of Lupane Triterpenoids” (Molecules, 2020).
Read-outs that look alike come from different tables or passages of the source.

What was measured:
[1] = system: Rat Liver ER Neutral α-Glucosidase; test: Endoplasmic reticulum α-glucosidase activity assay; type: biochemical
Description: Betulinic acid inhibits yeast α-glucosidase activity and interferes with N-linked glycan modifications to cell-surface intercellular adhesion molecule-1 (ICAM-1) in human lung carcinoma A549 cells in a similar manner to castanospermine, an inhibitor of endoplasmic reticulum α-glucosidases I and II [66]. […] Taken together, these considerations prompted us to evaluate a series of lupanes with amide function or polyamine chain 11, 12, 16, 18, and 22–26 for α-glucosidase inhibition. Initially, they were screened against α-glucosidase of S. cerevisiae as an accessible and high-throughput model. Confirmatory experiments were performed on isolated rough endoplasmic reticulum vesicles from rat liver, which contain neutral α-glucosidases I and II in a membrane-bound form.
Endoplasmic reticulum was isolated from hepatocytes of decapitated male Sprague-Dawley rats, which were starved overnight and sacrificed the next morning. All experiments were approved by Volgograd regional ethic committee. The whole procedure was performed at 4 °C. In brief, a fresh tissue sample from an animal was washed twice with 10 mL of PBS to remove residual blood. The tissue was placed on a paper towel in order to absorb excess liquid and blood clots, if present. It was cut further into small pieces (1.5–2 cm) and washed once more. […] Homogenate was centrifuged at 1000× g for 10 min at 4 °C. After removal of the floating lipid layer by aspiration, supernatant was separated and centrifuged at 12,000× g for 15 min. at 4 °C. The supernatant fraction, which is the post mitochondrial fraction (PMF), was used for isolation of rough endoplasmic reticulum (RER) enriched microsomes by precipitation with 8 mM CaCl2 added dropwise. The final concentration of CaCl2 was 7 mM. Resulting sample was centrifuged at 8000 g for 10 min. at 4 °C. The supernatant was discarded, and the pellet was suspended in isotonic extraction buffer (0.3 mL of buffer for each g of original tissue). The suspension was homogenized completely to afford RER enriched microsomes. In a 96-well flat transparent plate 25 µL of the isolated RER microsomes were incubated with 50 µL of test compounds in 67 mM PBS (pH 6.8) at 37 °C for 10 min. Then, p-nitrophenyl-α-D-glucopyranoside (Sigma #N1377, St. Louis, MO, USA) was added to 1 mM final concentration and increase in absorbance was recorded for 42 min at 405 nm wavelength with Infinite M200 PRO microplate reader (Tecan, Austria). Concentration of RER microsomes was adjusted to achieve an increase in optical density of ~0.2 in control samples after 30 min. of incubation. Test compounds were prepared as described above for the yeast α-glucosidase assay.

[2] = system: 60 human tumor cell lines; test: cells
COLO 205 = test: NCI-60 SRB screen: colon cancer COLO 205; type: cell-based, human; conditions: COLO 205; single dose 10 µM
MOLT-4 = test: NCI-60 SRB screen: leukemia MOLT-4; type: cell-based; conditions: Homo sapiens, 48 h; MOLT-4; single dose 10 µM; read-out: Percentage Cell Growth
CCRF-CEM = test: NCI-60 SRB screen: leukemia CCRF-CEM; type: cell-based; conditions: Homo sapiens, 48 h, single dose 10 µM, read-out: Percentage Cell Growth
HCT-116 = test: NCI-60 SRB screen: colon cancer HCT-116; type: cell-based; conditions: Homo sapiens, 48 h; HCT-116; single dose 10 µM; read-out: Percentage Cell Growth
K-562 = test: NCI-60 SRB screen: leukemia K-562; type: cell-based, human; conditions: K-562; single dose 10 µM
SW-620 = test: NCI-60 SRB screen: colon cancer SW-620; type: cell-based; conditions: Homo sapiens, 48 h; SW-620; single dose 10 µM; read-out: Percentage Cell Growth
KM12 = test: NCI-60 SRB screen: colon cancer KM12; type: cell-based, human; conditions: KM12; single dose 10 µM
RPMI-8226 = test: NCI-60 SRB screen: leukemia RPMI-8226; type: cell-based; conditions: Homo sapiens, 48 h; RPMI-8226; single dose 10 µM; read-out: Percentage Cell Growth
LOX IMVI = test: NCI-60 SRB screen: melanoma LOX IMVI; type: cell-based, human; conditions: single dose 10 µM
IGROV1 = test: NCI-60 SRB screen: ovarian cancer IGROV1; type: cell-based, human; conditions: IGROV1; single dose 10 µM
U251 = test: NCI-60 SRB screen: CNS cancer U251; type: cell-based; conditions: Homo sapiens, U-251, 48 h; U251; single dose 10 µM; read-out: Percentage Cell Growth
OVCAR-8 = test: NCI-60 SRB screen: ovarian cancer OVCAR-8; type: cell-based, human; conditions: OVCAR-8; single dose 10 µM
NCI-H460 = test: NCI-60 SRB screen: non-small cell lung cancer NCI-H460; type: cell-based; conditions: Homo sapiens, 48 h; NCI-H460; single dose 10 µM; read-out: Percentage Cell Growth
HT29 = test: NCI-60 SRB screen: colon cancer HT29; type: cell-based; conditions: Homo sapiens, HT-29, 48 h; HT29; single dose 10 µM; read-out: Percentage Cell Growth
SR = test: NCI-60 SRB screen: leukemia SR; type: cell-based; conditions: Homo sapiens, 48 h, single dose 10 µM, read-out: Percentage Cell Growth
MCF7 = test: NCI-60 SRB screen: breast cancer MCF7; type: cell-based; conditions: Homo sapiens, 48 h; MCF7; single dose 10 µM; read-out: Percentage Cell Growth
Yeast α-Glucosidase = test: Yeast α-glucosidase activity assay; type: biochemical, S. cerevisiae; conditions: pH 6.8, 37 °C, p-nitrophenyl-α-D-glucopyranoside 1 mM; read-out: Yeast α-Glucosidase, IC50 ± SE
Description: Taken together, these considerations prompted us to evaluate a series of lupanes with amide function or polyamine chain 11, 12, 16, 18, and 22–26 for α-glucosidase inhibition. Initially, they were screened against α-glucosidase of S. cerevisiae as an accessible and high-throughput model. Confirmatory experiments were performed on isolated rough endoplasmic reticulum vesicles from rat liver, which contain neutral α-glucosidases I and II in a membrane-bound form.
In a 96-well flat transparent plate, the 0.12 U/mL enzyme solution (EC 3.2.1.20, expressed in S. cerevisiae, Sigma #G0660, St. Louis, MO, USA) was incubated with test compounds in 67 mM PBS (pH 6.8) at 37 °C for 5 min. Then, p-nitrophenyl-α-D-glucopyranoside (Sigma #N1377, St. Louis, MO, USA) was added to 1 mM final concentration and an increase in absorbance was recorded for 15 min at 405 nm wavelength with Infinite M200 PRO microplate reader (Tecan, Austria). Test compounds were dissolved in DMSO and diluted to the desired concentration in 67 mM PBS (pH 6.8) supplemented with 0.01% Tween 80 to avoid aggregation. Final DMSO concentration was <0.25% in sample wells, and it was also introduced in control and blank wells. […] Due to the absence of normal distribution of data, a Mann–Whitney U-test was used to determine statistical significance versus enzyme control using GraphPad Prism 8.0.1.

C[C@H]1O[C@H](O[C@H]2[C@H](O)[C@@H](O)[C@@H](O[C@H]3[C@H](O)[C@@H](O)C(O)O[C@@H]3CO)O[C@@H]2CO)[C@H](O)[C@@H](O)[C@@H]1N[C@H]1C=C(CO)[C@@H](O)[C@H](O)[C@H]1O (stereo partly drawn) [Acarbose, reference compound]
Rat Liver ER Neutral α-Glucosidase Inhibition, m ± SD ([1]; 10 μM): 5.68 ± 4.68% | Rat Liver ER Neutral α-Glucosidase Inhibition, m ± SD ([1]; 100 μM): 24.09 ± 6.48% | Rat Liver ER Neutral α-Glucosidase Inhibition, m ± SD ([1]; 1 mM): 74.55 ± 3.76%

C=C(C)[C@@H]1CC[C@]2(C(=O)NN(CCN(CCNC(=O)OC(C)(C)C)C(=O)OC(C)(C)C)C(=O)OC(C)(C)C)CC[C@]3(C)[C@H](CC[C@@H]4[C@@]5(C)CCC(=O)C(C)(C)[C@@H]5CC[C@]43C)[C@@H]12 [Compound 15]
activity at 10 µM ([2]; read-out: Mean Growth, %): 90.1% | activity at 10 µM ([2]; read-out: Range of Growth, %): 56.8 to 114%

C=C(C)[C@@H]1CC[C@]2(C(=O)NCCCCCCN(CCCN)CCCN)CC[C@]3(C)[C@H](CC[C@@H]4[C@@]5(C)CC[C@H](OCCCN)C(C)(C)[C@@H]5CC[C@]43C)[C@@H]12 [Compound 19]
Percentage Cell Growth (COLO 205): 18.88% | activity at 10 µM ([2]; read-out: Mean Growth, %): 63% | activity at 10 µM ([2]; read-out: Range of Growth, %): -39.5 to 141% | activity at 10 µM (MOLT-4): 10.1% | activity at 10 µM (CCRF-CEM): 11.8% | activity at 10 µM (HCT-116): 12.6% | Percentage Cell Growth (K-562): 1.52% | activity at 10 µM (SW-620): 7.33% | Percentage Cell Growth (KM12): 31.48% | activity at 10 µM (RPMI-8226): 29.3% | Percentage Cell Growth (LOX IMVI): 5.71% | Percentage Cell Growth (IGROV1): 27.33% | activity at 10 µM (U251): -39.5% | Percentage Cell Growth (OVCAR-8): −28.27% | activity at 10 µM (NCI-H460): -16.2% | activity at 10 µM (HT29): 4.21% | activity at 10 µM (SR): 18.4% | activity at 10 µM (MCF7): 14.5%

C=C(C)[C@@H]1CC[C@]2(COCCCN)CC[C@]3(C)[C@H](CC[C@@H]4[C@@]5(C)CC[C@H](OCCCN)C(C)(C)[C@@H]5CC[C@]43C)[C@@H]12 [Compound 18]
Rat Liver ER Neutral α-Glucosidase Inhibition, m ± SD ([1]; 10 μM): 56.64 ± 4.24 % | Rat Liver ER Neutral α-Glucosidase Inhibition, m ± SD ([1]; 100 μM): 36.51 ± 14.90 % | IC50 (Yeast α-Glucosidase): 5.7 ± 1.09 µM

C=C(C)[C@@H]1CC[C@]2(C(=O)NCCCC[C@@H](N)C(=O)OC)CC[C@]3(C)[C@H](CC[C@@H]4[C@@]5(C)CCC(=O)C(C)(C)[C@@H]5CC[C@]43C)[C@@H]12 [Compound 17]
activity at 10 µM ([2]; read-out: Mean Growth, %): 98.7% | activity at 10 µM ([2]; read-out: Range of Growth, %): 79.2 to 111%

C=C(C)[C@@H]1CC[C@]2(C(=O)NCCCCCCN(CCCN)CCCN)CC[C@]3(C)[C@H](CC[C@@H]4[C@@]5(C)CCC(=O)C(C)(C)[C@@H]5CC[C@]43C)[C@@H]12 [Compound 13]
activity at 10 µM ([2]; read-out: Mean Growth, %): 105% | activity at 10 µM ([2]; read-out: Range of Growth, %): 85.8 to 118%
